Measured values taken from ChEMBL document CHEMBL2074519, “Molecular evidence and functional expression of a novel drug efflux pump (ABCC2) in human corneal epithelium and rabbit cornea and its role in ocular drug efflux” (Int J Pharm, 2006).

Experiments:
[1] = target: T1, ATP-binding cassette sub-family C member 2 (Homo sapiens, UniProt Q92887); test: TP_TRANSPORTER: increase cell accumulation of cyclosporine-A in hMRP2-expressing MDCK2 cells; format: functional, cell-based; details: dog, mdck-ii
T1 sequence (Q92887 whole entry): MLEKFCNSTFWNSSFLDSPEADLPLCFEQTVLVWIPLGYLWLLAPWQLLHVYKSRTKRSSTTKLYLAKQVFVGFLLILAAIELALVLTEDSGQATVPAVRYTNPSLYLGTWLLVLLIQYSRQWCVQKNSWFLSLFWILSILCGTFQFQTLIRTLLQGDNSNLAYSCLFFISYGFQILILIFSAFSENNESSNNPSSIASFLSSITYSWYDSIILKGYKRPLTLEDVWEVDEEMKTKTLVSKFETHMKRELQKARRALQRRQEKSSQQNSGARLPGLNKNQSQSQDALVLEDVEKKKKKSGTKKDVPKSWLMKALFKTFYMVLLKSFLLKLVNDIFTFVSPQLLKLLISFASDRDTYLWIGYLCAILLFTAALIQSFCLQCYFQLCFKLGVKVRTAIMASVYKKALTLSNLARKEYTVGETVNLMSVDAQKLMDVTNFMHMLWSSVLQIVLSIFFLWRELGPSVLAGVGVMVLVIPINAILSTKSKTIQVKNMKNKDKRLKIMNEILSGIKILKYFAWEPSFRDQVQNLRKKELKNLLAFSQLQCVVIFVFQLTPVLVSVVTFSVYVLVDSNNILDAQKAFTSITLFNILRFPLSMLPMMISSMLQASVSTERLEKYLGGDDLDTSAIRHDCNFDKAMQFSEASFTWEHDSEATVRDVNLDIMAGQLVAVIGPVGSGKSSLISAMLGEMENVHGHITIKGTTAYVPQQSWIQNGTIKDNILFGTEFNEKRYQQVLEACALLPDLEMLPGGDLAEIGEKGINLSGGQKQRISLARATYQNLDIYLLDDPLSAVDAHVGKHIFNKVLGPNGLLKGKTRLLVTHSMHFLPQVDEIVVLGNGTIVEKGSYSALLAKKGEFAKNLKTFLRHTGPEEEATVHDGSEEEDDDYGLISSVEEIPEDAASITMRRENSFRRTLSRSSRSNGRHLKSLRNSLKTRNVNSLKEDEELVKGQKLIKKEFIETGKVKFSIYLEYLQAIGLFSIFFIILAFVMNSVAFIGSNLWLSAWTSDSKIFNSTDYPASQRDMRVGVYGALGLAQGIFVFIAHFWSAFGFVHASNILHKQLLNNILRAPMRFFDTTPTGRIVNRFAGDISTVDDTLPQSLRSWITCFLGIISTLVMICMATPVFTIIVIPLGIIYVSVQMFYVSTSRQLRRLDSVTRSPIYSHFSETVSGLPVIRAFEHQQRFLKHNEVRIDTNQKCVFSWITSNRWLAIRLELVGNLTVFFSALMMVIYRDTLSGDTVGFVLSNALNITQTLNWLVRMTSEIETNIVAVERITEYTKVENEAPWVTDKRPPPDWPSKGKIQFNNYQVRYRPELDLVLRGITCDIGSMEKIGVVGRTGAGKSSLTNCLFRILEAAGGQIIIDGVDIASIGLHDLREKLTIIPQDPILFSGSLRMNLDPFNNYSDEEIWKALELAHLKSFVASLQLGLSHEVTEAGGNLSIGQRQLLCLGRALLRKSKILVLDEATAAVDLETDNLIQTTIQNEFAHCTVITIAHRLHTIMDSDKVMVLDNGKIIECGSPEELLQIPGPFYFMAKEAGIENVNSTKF

[2] = target: T1, ATP-binding cassette sub-family C member 2; test: TP_TRANSPORTER: increase cell accumulation of erythromycin in hMRP2-expressing MDCK2 cells; format: functional, cell-based; details: dog, mdck-ii

Activity [1]: 156% | Activity [2]: 195%
Compound: CN(C)C(=O)CCSC(SCCC(=O)O)c1cccc(/C=C/c2ccc3ccc(Cl)cc3n2)c1 (configuration not stated) [MK-571]
